Columns and labels:
glioma cell line (GL261) [1] = assay: glioma cell viability assay (Presto Blue, fluorescence); assay type: cell-based
Description: The combination of GMCI and ATRi (AZD6738) is examined for anti-cancer activity. A schematic of an experimental design to test the effect of combining of GMCI and ATR inhibitor combination on glioma cells is illustrated in FIG. 1. At the start of the study (Day 0), a glioma cell line (GL261; NCI-Frederick Cancer Research Tumor Repository, Frederick, Md.) is plated at a density of 5000 cells per well. For the samples on which GMCI is administered, on the following day (Day 1) AdV-tk vector is added at a concentration of approximately […] (100 MOI). Starting on Day 2, to the samples being treated with GMCI, ganciclovir is added to a concentration of 5 μg/ml. […] At Day 4, cell viability is assayed by the addition of a vial dye such as Presto Blue assay (Life Technologies) and quantified by fluorescence spectrometry.
Synergism was analyzed by the Combination Index (CI) calculation with the formula of Chou-Talalay (Chou 2010; Ting-Chao Chou 1984). CI values above 1.00 indicate antagonistic effect of combination agents, a CI of 1.00 indicates an additive effect, and CI values below 1.00 indicate synergistic effect.

glioma cell line (GL261) [2] = assay: double-stranded DNA breaks by H2AX Ser139 staining (confocal microscopy); assay type: cell-based; conditions: 6 hours after addition of ATRi (IC50 concentration) and/or GCV 5 μg/ml, compared with untreated cells
Description: In another experiment, the frequency of double-stranded DNA breaks in glioma cells treated with GMCI, ATRi, or the combination. The formation of double-stranded DNA breaks was examined by staining the cells for H2AX-Ser139 as previously performed (Speranza et al. 2017).
At the start of the study (Day 0), glioma cell line (GL261; NCI-Frederick Cancer Research Tumor Repository, Frederick, Md.) is plated at a density of 12,500 cells per well of a 24 well plate containing glass coverslips. For the samples to which GMCI is administered, AdV-tk vector is added at a concentration of approximately 1.25×10^6 vp/ml (100 MOI). Starting on Day 1, to the samples being treated with GMCI, ganciclovir is added to a concentration of 5 μg/ml. In samples exposed to ATRi, starting at Day 1 AZD6738 was added at a concentration to the IC50 concentration of the drug. either in combination with GMCI or alone, as indicated. At a timepoint 6 hours after addition of the ATRi and/or GCV, the cells were fixed in 4% paraformaldehyde in phosphate buffered saline. After blocking with 5% donkey serum/0.5% Tween 20, 0.02% TX100/PBS for 1 hour at room temperature (RT), cells were washed 3 times with washing buffer (0.5% Tween 20, 0.02% TX100/PBS) and stained with H2AX Ser139 antibody (1:100). The next day the samples were washed and incubated for 2 hours with a fluorescently-tagged secondary antibody plus Hoechst 33342. […]

Compound: C[C@@H]1COCCN1c1cc(C2([S@](C)(=N)=O)CC2)nc(-c2cc[nH]c3nccc2-3)n1 [AZD6738]
- cell viability (fluorescence normalized to no treatment) (glioma cell line (GL261) [1]; GL261, single agents, AZD6738 at IC50 (1 μM) or ½ IC50 (0.5 μM) from Day 2, GMCI = AdV-tk 100 MOI + ganciclovir 5 μg/ml, read at Day 4): cytotoxic activity
- IC50 (glioma cell line (GL261) [1]; Mus musculus, GL261 glioma cells, read-out: IC50 concentration): 1000 nM
- double-stranded DNA breaks / H2AX(Ser139) staining (glioma cell line (GL261) [2]): Double-stranded DNA breaks occur
- double-stranded DNA breaks / H2AX(Ser139) staining (glioma cell line (GL261) [2]; listed as ATRi): large increase in H2AX staining
